Results published in patent US4699901A, “Diacyl derivatives of glycerylphosphorylcholine, their preparation, and antihyperlipidemic compositions” (Neopharmed SpA, priority 1984, dated 1987).

What was measured:
[1] = tested on: cholesterol and triglycerides; experiment: hyperlipidemie test induced in the rat by the administration of Triton WR 1330; format: in vivo; conditions: Triton induced hyperlipidemia, at the minimum dose of 37.5 mg/kg p.os
Source text: The bis(pyridyl-3-carboxilate) esters of formula (I) show an antidislipemic activity higher than that of nicotinic acid.

[2] = tested on: cholesteryl ester hydrolysis and synthesis (acyl-CoA: cholesterol-acyltransferase); conditions: cited from earlier work
[3] = tested on: levels of acetylcholine in the cortex; experiment: experimental model in the mouse of the presinaptic neurochemical damage of Alzheimer disease (Mantione); format: in vivo; conditions: Alzheimer model (Mantione et al.)

C[N+](C)(C)CCOP(=O)([O-])OC[C@@H](COC(=O)c1cccnc1)OC(=O)c1cccnc1 [optically active form L(alpha), L(alpha) glycerylphosphorylcholine bis(pyridyl-3-carboxilate)]
inhibition of cholesterol [1]: 50%
inhibition of triglycerides [1]: 50%

CCCCC/C=C\C/C=C\CCCCCCCC(=O)OC[C@H](COP(=O)([O-])OCC[N+](C)(C)C)OC(=O)CCCCCCC/C=C\C/C=C\CCCCC [polienoic phosphatidylcholine, glyceril phosphorylcholine Dilinoleate]
anti-aterogenic action [2]: An anti-aterogenic action
hydrolysis of cholesteryl ester [2]: an increase of the hydrolysis of cholesteryl ester
synthesis of cholesteryl esters from acyl-CoA: cholesterol-acyltransferase [2]: a reduction of the synthesis of cholesteryl esters

L(alpha) glycerylphosphorylcholine bis(pyridyl-3-carboxilate) calcium salt
inhibition of the regional diminution of the levels of acetylcholine in the cortex [3]: inhibits, in a dose-answer form, the regional diminution of the levels of acetylcholine in the cortex
